Test results reported in paper PMC3166295 (PLoS ONE, 2011).
Peptide text beside a SMILES is read from it.

Assays:
[1] = system: 8H5 binding to H5N1 virus Chicken/HongKong/YU22/2002; set-up: species or system H5N1 avian influenza virus
[2] = system: 8H5 binding to H5N1 virus Shenzhen/406H/2006; set-up: species or system H5N1 avian influenza virus
8H5 mAb [3] = format: binding, murine; details: read-out: Kd (dissociation constant for 8H5)
8H5 mAb [4] = format: binding, murine
[5] = system: chicken serum antibody against H5N1 avian influenza virus; format: binding

SMILES	Blocking Dose Yu22: amount of peptide that blocks binding of 8H5 to the virus by 50% [1] [µg]	Blocking Dose SZ/406H: amount of peptide that blocks binding of 8H5 to the virus by 50% [2] [µg]	Kd (8H5 mAb [3]) [nM]	8H5 titer (Tod1.5): phage dilution yielding an OD value of 1.5 (8H5 mAb [4])	reactivity of the ELISA produced with V-1b fused to HBcAg with chicken serum samples [5]
CC[C@H](C)[C@H](NC(=O)[C@@H](NC(=O)[C@H](CC(C)C)NC(=O)[C@H](CCC(=O)O)NC(=O)[C@@H](NC(=O)[C@@H](N)CCC(=O)O)[C@@H](C)O)[C@@H](C)O)C(=O)N[C@@H](C)C(=O)N[C@@H](C)C(=O)N[C@@H](CC(C)C)C(=O)N[C@@H](CCCCN)C(=O)N[C@@H](Cc1ccc(O)cc1)C(=O)N[C@H](C(=O)O)C(C)C [IV-1b] (H-ETELTIAALKYV-OH; N-terminus and C-terminus assumed)	>50	>50			
CC(C)C[C@H](NC(=O)[C@H](C)NC(=O)[C@H](CCC(N)=O)NC(=O)[C@H](CCCCN)NC(=O)[C@@H](NC(=O)[C@H](CC(C)C)NC(=O)[C@H](CCC(=O)O)NC(=O)[C@@H](NC(=O)[C@@H](N)CC(=O)O)[C@@H](C)O)[C@@H](C)O)C(=O)N[C@@H](CCCNC(=N)N)C(=O)N[C@@H](CC(C)C)C(=O)N[C@H](C(=O)O)C(C)C [III-2a] (H-DTELTKQALRLV-OH; N-terminus and C-terminus assumed)	15.19	6.10			
CC[C@H](C)[C@H](NC(=O)[C@@H](NC(=O)[C@H](CC(C)C)NC(=O)[C@@H]1CCCN1C(=O)[C@@H](NC(=O)[C@@H](N)CC(=O)O)[C@@H](C)O)[C@@H](C)O)C(=O)N[C@@H](C)C(=O)NCC(=O)N[C@@H](CC(C)C)C(=O)N[C@@H](CCCCN)C(=O)N[C@@H](CC(C)C)C(=O)N[C@H](C(=O)O)C(C)C [II-1c] (H-DTPLTIAGLKLV-OH; N-terminus and C-terminus assumed)	8.90	2.38			
CC(C)C[C@H](NC(=O)[C@H](C)NC(=O)[C@H](C)NC(=O)[C@@H](NC(=O)[C@@H](NC(=O)[C@H](CC(C)C)NC(=O)[C@@H]1CCCN1C(=O)[C@@H](NC(=O)[C@@H](N)CC(=O)O)[C@@H](C)O)[C@@H](C)O)[C@@H](C)O)C(=O)N[C@@H](CCCNC(=N)N)C(=O)N[C@@H](CC(C)C)C(=O)N[C@H](C(=O)O)C(C)C [p125] (H-DTPLTTAALRLV-OH; N-terminus and C-terminus assumed)	18.34	11.16	824	2.96	
CC[C@H](C)[C@H](NC(=O)[C@@H](NC(=O)[C@H](CC(C)C)NC(=O)[C@@H]1CCCN1C(=O)[C@@H](NC(=O)[C@@H](N)CCC(=O)O)[C@@H](C)O)[C@@H](C)O)C(=O)N[C@@H](C)C(=O)NCC(=O)N[C@@H](CC(C)C)C(=O)N[C@@H](CCCCN)C(=O)N[C@@H](CC(C)C)C(=O)N[C@@H](CCCCN)C(=O)O [V-1b] (H-ETPLTIAGLKLK-OH; N-terminus and C-terminus assumed)	5.70	2.31			only the H5N1 avian influenza reactive samples were also 8H5 reactive
